# In patent US7851467B2, “Carbamate compounds as 5-HT4 receptor agonists” (Theravance, Inc., priority 2005, dated 2010):
# Target: T1, human 5-HT4(c) receptor (Homo sapiens, UniProt Q13639)
# T1 construct: expressed in transfected cells; host or cells: HEK-293
# Experiment: Radioligand binding assay on 5-HT4(c) human receptors ([3H]-GR113808 displacement)
# Conditions: HEK-293 membranes, [3H]-GR113808 at 0.15 nM, read-out: pKi value (converted)
# Description: Assay 1: Radioligand Binding Assay on 5-HT4(C) Human Receptors a. Membrane Preparation 5-HT4(c)
# HEK-293 (human embryonic kidney) cells stably-transfected with human 5-HT4(C) receptor cDNA (Bmax=˜6.0 pmol/mg protein, as determined using [^3H]-GR113808 membrane radioligand binding assay) were grown in T-225 flasks in Dulbecco's Modified Eagles Medium (DMEM) containing 4,500 mg/L D-glucose and pyridoxine hydrochloride (GIBCO-Invitrogen Corp., Carlsbad Calif.: Cat #11965) supplemented with 10% fetal bovine serum (FBS) (GIBCO-Invitrogen Corp.: Cat #10437), 2 mM L-glutamine and (100 units) penicillin-(100 μg) streptomycin/ml (GIBCO-Invitrogen Corp.: Cat #15140) in a 5% CO2, humidified incubator at 37° C. […]
# For the membrane preparation, cell pellets were resuspended in ice-cold 50 mM 4-(2-hydroxyethyl)-1-piperazineethanesulphonic acid (HEPES), pH 7.4 (membrane preparation buffer) (40 mL/total cell yield from 30-40 T225 flasks) and homogenized using a polytron disrupter (setting 19, 2×10 s) on ice. […] Protein concentration of the membrane suspension was determined by the method of Bradford (Bradford, 1976). […]
# Test compounds were received as 10 mM stock solutions in DMSO and diluted to 400 μM into 50 mM HEPES pH 7.4 at 25° C., containing 0.1% BSA, and serial dilutions (1:5) then made in the same buffer. Non-specific binding was determined in the presence of 1 μM unlabeled GR113808. […]
# T1 sequence (Q13639 1-380 isoform Q13639-4): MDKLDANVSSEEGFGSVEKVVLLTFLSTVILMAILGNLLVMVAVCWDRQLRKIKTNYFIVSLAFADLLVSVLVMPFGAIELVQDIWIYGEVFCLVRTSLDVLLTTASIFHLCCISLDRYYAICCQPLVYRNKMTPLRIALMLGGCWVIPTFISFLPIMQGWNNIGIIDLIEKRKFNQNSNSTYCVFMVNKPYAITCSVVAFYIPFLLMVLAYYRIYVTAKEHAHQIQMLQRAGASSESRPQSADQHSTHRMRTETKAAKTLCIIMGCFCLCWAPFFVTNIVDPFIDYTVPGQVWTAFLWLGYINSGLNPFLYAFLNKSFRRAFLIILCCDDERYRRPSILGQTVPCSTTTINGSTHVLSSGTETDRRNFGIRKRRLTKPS
compound,measurement,value
"CC(C)n1c(=O)n(C(=O)N[C@H]2C[C@H]3CC[C@@H](C2)N3CCCOC(=O)N2CCN(C(=O)C3CCCO3)CC2)c2ccccc21 (stereo partly drawn) [Example 1, 4-(tetrahydrofuran-2-carbonyl)piperazine-1-carboxylic acid 3-{(1S,3R,5R)-3-[(3-isopropyl-2-oxo-2,3-dihydrobenzoimidazole-1-carbonyl)amino]-8-aza-bicyclo[3.2.1]oct-8-yl}propyl ester]",Ki,12.6 nM
